Among the test systems are NCI-H23 lung; HT29 colon; MALME-3M melanoma; ACHN renal; M14 melanoma; 786-0 renal; CCRF-CEM leukemia; SF-539 CNS; UACC-62 melanoma; OVCAR-3 ovarian.
Common to all, as to assay: NCI-60 cell line screen, 48 h

Molecules are shown by their SMILES.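 How tested: cells in 96-well plates exposed to compound for 48 hours at five concentrations. The concentration for 50% growth inhibition is given as GI50. At the TGI there is no net growth.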

`CC(C)(C)c1cc(C(=O)Nc2ccc(C(=O)NCCN)cc2)cc(C(C)(C)C)c1`: the GI50 is 3.19 µM with NCI-H23 lung; 2000 nM in the assay on HT29 colon; 1430 nM in the assay on MALME-3M melanoma; 4.45 µM in the assay on ACHN renal; 1710 nM in the assay on M14 melanoma; 1560 nM in the assay on 786-0 renal. Besides, the GI50 in the assay on CCRF-CEM leukemia is 2540 nM; in the assay with SF-539 CNS, 1680 nM; with UACC-62 melanoma, 1860 nM; in the assay on OVCAR-3 ovarian, 2180 nM. Besides, the TGI in the assay with NCI-H23 lung was 14.4 µM; with HT29 colon it was 5.19 µM; with MALME-3M melanoma, 3.13 µM; with ACHN renal, 18.7 µM; with M14 melanoma, 3.42 µM; with 786-0 renal it was 3.07 µM. The TGI with CCRF-CEM leukemia was determined as 7.28 µM; in the assay on SF-539 CNS it was 3.41 µM; in the assay with UACC-62 melanoma, 3.56 µM; with OVCAR-3 ovarian, 4.97 µM.

(Values after PubChem BioAssay (NCI).)
